According to US20120164104A1, “Composition and Methods of Treating Viral Infections and Viral Induced Tumors” (Chimerix, Inc., priority 2009, published 2012):

Columns and labels:
COS-7 = experiment: Inspection of COS-7 by phase contrast microscopy; type: cell-based; conditions: 7 day exposure to CMX001 0.6 μM
JCV Mad-4 = experiment: Extracellular JCV load in JCV-infected astrocyte cells (qPCR); type: cell-based; conditions: in the presence of CMX001
Protocol: FIG. 17 illustrates the effect of increasing concentrations of CMX001 on extracellular viral load in astrocytes. Supernatants from JCV-infected PDA cells treated with indicated concentrations of CMX001 were harvested at indicated timepoints after infection and JCV load measured by qPCR. Data are presented as JCV load in log geq/ml. COS-7 or astrocyte cells were infected at a confluence of 60-70% with JCV(Mad-4) at an estimated TCID50 of 0.2. After 2 h incubation at 37° C., supernatants were replaced with fresh medium without or with increasing concentration CMX001. […] JCV loads were quantified after DNA extraction from 100 ul cell culture supernatants and the Corbett X-tractor Gene and the Corbett VX reagents (Qiagen, Hombrechtikon, Switzerland). The real-time PCR protocol for detection of JCV DNA samples targets the JCV large T coding sequence and has been described elsewhere (5). To examine the effect of CMX001 on JCV progeny levels over time, supernatants of treated and untreated cells were harvested at the indicated timepoints. To determine input virus samples were taken at 1 d.p.i. In the course of the infection for untreated cells, the extracellular JCV load changes approximately 1 log over the period of 7 days (3.22×107 vs 2.30×108 geq/ml).

BKV = experiment: Stability of CMX001 stock solution, tested by antiviral effect on extracellular BKV load; type: cell-based; conditions: diluted to 0.31 uM
Protocol: FIG. 7 illustrates the stability of CMX001. For FIG. 7, BKV-infected RPTECs were treated with freshly made CMX001 or CMX001 from a stock solution at 1 mg/ml stored for one week at 4° C. or −20° C. Supernatants were harvested 72 h p.i. and extracellular BKV load measured by qPCR. Data are presented as BKV load in percent of untreated cells set at 100%.
To examine the stability of CMX001 stock solution 1 mg/ml was put in 4 or −20° C. for one week then diluted to 0.31 uM and tested for its antiviral effect by measuring the extracellular BKV load in BKV-infected RPTEC 3 d p.i.

JC virus = experiment: Antiviral activity against JC virus in COS-7 cells (qPCR, 5 days); type: cell-based, JCV(Mad-4)
Protocol: In order to test the ability of CMX001 to inhibit JC virus, COS-7 cells were infected with JCV(Mad-4) at an estimated TCID50 of 0.2. After 2 h incubation at 37° C., supernatants were replaced with fresh medium without or with increasing amounts of CMX001 and incubated for 5 days. JC virus was quantified by qPCR after DNA extraction.

COS-7 cells = experiment: Metabolic activity of uninfected COS-7 cells (WST-1 assay); type: cell-based
Protocol: Metabolic activity was examined as WST-1 cleavage. Medium with indicated CMX001 concentrations was added to COS-7 cells and absorbance measured 72 h post seeding. Absorbance for untreated cells was set as 100%. The metabolic activity was monitored by the colorimetric WST-1 assay (Roche) of the mitochondrial dehydrogenases in viable cells. COS-7 cells were seeded in 96 well plates and CMX001 was added at indicated concentrations. The WST-1 cleavage product was measured at 450 nm (sample) and at 650 nm (background). WST-1 plus medium alone served as blank.

[1] = JC polyomavirus, 120 h, JCV(Mad-4), 5 days

**Q.** `CCCCCCCCCCCCCCCCOCCCOP(=O)(O)CO[C@H](CO)Cn1ccc(N)nc1=O` [CMX001] was tested. Which “signs of impaired viability” value (COS-7) did it give?
**A.** did not reveal any signs of impaired viability

**Q.** And the “change in JCV load over 7 days” value (JCV Mad-4)?
**A.** less than 1 log

**Q.** What about the “activity compared to the freshly prepared drug” value (BKV; stock 1 mg/ml stored one week at 4° C.) of the same compound?
**A.** less than 60%

**Q.** And the “activity compared to the freshly prepared drug” value (BKV; stock 1 mg/ml stored one week at −20° C.)?
**A.** approximately 90%

**Q.** And the EC50 (JC virus; [1])?
**A.** 0.15 µM

**Q.** And the EC90 (JC virus; [1])?
**A.** 0.6 µM

**Q.** What about the “activity against JC virus” value (JC virus; in words) of the same compound?
**A.** active

**Q.** And the “loss of metabolic activity” value (COS-7 cells; CMX001 0.6 μM, COS-7)?
**A.** 17%

**Q.** What about the IC50 (COS-7 cells; Chlorocebus aethiops, uninfected COS-7 cells) of the same compound?
**A.** ~5 µM
